TGI data for twelve compounds are collected here from PubChem BioAssay (NCI).

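Tested at 5 concentrations; 48 h exposure; 96-well plates; endpoints linearly interpolated, else capped at highest concentration. Definition used: TGI = concentration required for complete inhibition of growth.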

Experiment in all cases: NCI tumour cell line growth inhibition, 48 h
In experiment [1] the test system is CCRF-CEM leukemia.
For experiment [2], the system named is EKVX NSCLC.
The subject of experiment [3] is HCC-2998 colon.
Experiment [4] concerns HCT-15 colon.
For experiment [5], the system named is HL-60(TB) leukemia.
Experiment [6] concerns IGROV1 ovarian.
Experiment [7] relates to LOX IMVI melanoma.
Experiment [8] deals with MDA-MB-435.
The test system of experiment [9] is NCI-H23 lung.
In experiment [10] the test system is NCI-H460 lung.
The test system of experiment [11] is RXF 393 renal.
Experiment [12] relates to SNB-19 CNS.
The subject of experiment [13] is SR leukemia.
For experiment [14], the system named is TK-10 renal.
Experiment [15] concerns UACC-257 melanoma.
The subject of experiment [16] is UACC-62 melanoma.
In experiment [17] the test system is NCI-H226 lung.
Experiment [18] concerns OVCAR-4 ovarian.
The subject of experiment [19] is SK-MEL-28 melanoma.
Experiment [20] has as its system SNB-75 CNS.

Turning to `CC(C)(C)C1CCC2c3c([nH]c4ccccc34)C3C(=O)N(c4ccccc4Cl)C(=O)C3C2C1` (configuration not stated), the TGI is above 100 µM in experiment [1]; 31.5 µM in experiment [2]; 11.2 µM in experiment [3]; 31.6 µM in experiment [4]; 50.5 µM in experiment [5]; above 100 µM in experiment [6]. Further, the TGI in [7] is 28.5 µM; in experiment [8], above 100 µM; in [9] it was 62.7 µM; in experiment [10], 15.8 µM; in [11], 33.3 µM; in experiment [12], above 100 µM. For the same compound, the TGI was above 100 µM in experiment [13], 51.3 µM in experiment [14], above 100 µM in experiment [15] and 45.4 µM in experiment [16].

Turning to `CC(=O)OCC1OC(N2C(c3ccccc3)=CC(c3ccco3)C(C#N)=C2S)C(OC(C)=O)C(OC(C)=O)C1OC(C)=O` (configuration not stated), the TGI is above 100 µM in experiment [1]; above 52.1 µM in [2]; 48.9 µM in experiment [3]; above 100 µM in experiment [4]; above 67.1 µM in experiment [6]; above 46.4 µM in experiment [7]. Besides, the TGI in experiment [8] was above 70.5 µM; in experiment [17] it was 24.3 µM; in [9], 23.7 µM; in [10], above 62.2 µM; in [18], 9.16 µM; in experiment [11], 15.7 µM. Besides, the TGI in [19] was above 75.5 µM; in experiment [12], 38.7 µM; in [20] it was 8.9 µM; in experiment [13] it was above 37.5 µM; in [14] it was 37.5 µM; in experiment [15], above 100 µM. The compound further showed a TGI in experiment [16] of 65 µM.

As to `O=[N+]([O-])c1cccc(-c2ncc3c(n2)-c2ccccc2C3)c1`, the TGI in experiment [1], in [2], in experiment [4], in experiment [5], in [6] and in experiment [8] was above 100 µM each time. The TGI in [17], in experiment [9], in experiment [10], in [18], in [11] and in [19] was above 100 µM in each case. Moreover, the TGI is 72.4 µM in experiment [12]; above 100 µM in experiment [20]; above 100 µM in experiment [13]; above 100 µM in experiment [14]; above 100 µM in [15]; above 100 µM in [16].

Consider `C/C=C/C=C\C=C/C(O)C(C)C(CCC(C)C1OC(=O)C=CC1C)OP(=O)(O)O` (configuration not stated), for which the TGI in experiment [1] turned out to be 0.625 µM; in [2] it was 1.54 µM; in experiment [4], 1.97 µM; in experiment [5], 0.17 µM; in experiment [6], 0.694 µM; in experiment [7] it was 1.09 µM. The TGI is 0.773 µM in experiment [8]; 2.02 µM in [17]; 4.83 µM in [9]; 1.76 µM in [10]; 2.86 µM in experiment [18]; 1.38 µM in experiment [11]. In addition, the TGI was determined as 2.12 µM in [19]; 1.99 µM in experiment [12]; 2.85 µM in experiment [20]; 0.511 µM in experiment [13]; 1.91 µM in experiment [14]; 3.02 µM in experiment [15]. Also, the TGI in experiment [16] was 1.11 µM.

With `CC12CCC(=O)N1c1cncnc1N2` (configuration not stated), the TGI in [1], in experiment [2], in [3], in experiment [4], in experiment [5] and in experiment [6] was above 10 µM each time. Also, the TGI in experiment [7], in [8], in [17], in experiment [9], in experiment [10] and in experiment [18] was above 10 µM each time. The TGI in experiment [12], in [20], in experiment [13], in [14], in [15] and in experiment [16] was above 10 µM in each case.

Regarding `Cc1cc(C)nc(NS(=O)(=O)c2ccc(Nc3c4ccccc4nc4c(C(=O)NC(CO)(CO)CO)cccc34)cc2)n1`, the TGI is 58.9 µM in experiment [1]; above 100 µM in experiment [2]; 36.1 µM in experiment [3]; above 100 µM in experiment [4]; 97.9 µM in [5]; above 100 µM in experiment [6]. Also, the TGI in [7] is 42.2 µM; in [8], 51.6 µM; in experiment [9] it was above 100 µM; in [10], 35.3 µM; in experiment [18] it was above 100 µM; in [19] it was 62.5 µM. For the same compound, the TGI is above 100 µM in experiment [12]; 55.2 µM in experiment [20]; 67.2 µM in experiment [13]; 68.9 µM in experiment [14]; above 100 µM in [15]; above 100 µM in [16].

For the compound `O=c1[nH]c(N/N=C\C(=N/Nc2nc3ccccc3c(=O)[nH]2)C(O)C(O)C(O)CO)nc2ccccc12` (configuration not stated), the TGI in experiment [1], in experiment [2], in experiment [4], in experiment [5], in experiment [6] and in experiment [7] was above 100 µM throughout. Also, the TGI in experiment [8], in experiment [17], in [9], in experiment [10], in experiment [19] and in experiment [12] was above 100 µM throughout. Also, the TGI in experiment [20], in experiment [13], in [14], in [15] and in experiment [16] was above 100 µM throughout.

In the case of `COc1cc(C2OC(N)=C(C#N)C3=C2C(C)CCC3)cc(OC)c1OC` (configuration not stated), the TGI in experiment [1], in experiment [2], in experiment [4], in [5], in experiment [6] and in [7] was above 100 µM in each case. The TGI in experiment [8], in experiment [17], in experiment [9], in experiment [11], in experiment [19] and in experiment [12] was above 100 µM throughout. Also, the TGI in experiment [20] was 94.8 µM; in experiment [13], above 100 µM; in experiment [14], above 100 µM; in experiment [15] it was above 100 µM; in [16] it was above 100 µM.

With `Cc1cc(=O)oc2c(CNC(CO)C(=O)O)c(O)ccc12` (configuration not stated), the TGI in [1], in [2], in [4], in experiment [5], in experiment [6] and in experiment [7] was above 100 µM each time. Moreover, the TGI in experiment [8], in [17], in experiment [9], in [10], in [18] and in experiment [11] was above 100 µM each time. Also, the TGI in experiment [19], in experiment [12], in experiment [20], in experiment [13], in [14] and in experiment [15] was above 100 µM each time. Besides, the TGI in experiment [16] is above 100 µM.

For the compound `CSc1nn(C)cc2ncnc1-2`, the TGI in [1], in [2], in [4], in [5], in experiment [6] and in experiment [8] was above 100 µM throughout. The TGI in experiment [17], in experiment [9], in experiment [10], in experiment [11], in experiment [19] and in [12] was above 100 µM each time. For the same compound, the TGI in experiment [20] is 64 µM; in [13] it was above 100 µM; in experiment [14], above 100 µM; in experiment [15], above 100 µM; in [16], above 100 µM.

For the compound `CC1(C)C2CCC1(C)C(OC(=O)/C=C/C(=O)OC1CC3CCC1(C)C3(C)C)C2` (configuration not stated), the TGI was 31.1 µM in experiment [1]; above 100 µM in experiment [2]; above 100 µM in [3]; above 100 µM in experiment [4]; 40.7 µM in experiment [5]; above 100 µM in experiment [6]. Moreover, the TGI in experiment [7] is 49.9 µM; in [8] it was above 100 µM; in experiment [9], above 100 µM; in experiment [10], above 100 µM; in experiment [18] it was above 100 µM; in experiment [11], above 100 µM. Further, the TGI is 40.2 µM in experiment [19]; above 100 µM in [12]; 86.6 µM in experiment [20]; 55.7 µM in experiment [13]; above 100 µM in experiment [14]; above 100 µM in experiment [15]. In experiment [16], this compound registered a TGI above 100 µM.

As for `CNC1c2ccccc2C(=O)c2cc3c(cc21)OCCOCCOCCOCCO3` (configuration not stated), the TGI in experiment [1] was 46.1 µM; in experiment [2], above 100 µM; in experiment [3], above 100 µM; in experiment [4], above 100 µM; in [5], 66.6 µM; in experiment [6], above 100 µM. The TGI in [8], in experiment [10], in experiment [18], in experiment [19], in experiment [12] and in experiment [20] was above 100 µM each time. Further, the results for the TGI in [13], in experiment [14] and in experiment [15] were 96.2 µM, above 100 µM and above 100 µM, respectively.
